Measured values: US20210038607A1, “OXADIAZOLYLTHIOPHENE DERIVATIVES USEFUL AS HISTONE DEACETYLASE INHIBITORS” (Karus Therapeutics Limited, priority 2018, published 2021)

Experiments:
Human HDAC2 = biological target: T1, Human HDAC2 (Homo sapiens, UniProt Q92769); experiment: HDAC2 biochemical assay, AMC-labeled peptide substrate; conditions: read-out: HDAC Isoform IC50 (nM) 2
T1 construct: full length with C-terminal GST-tag; GST (C); host or cells: baculovirus expression system
Outline: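 Full-length human HDAC2 with C-terminal GST tag, baculovirus-expressed, at 0.07 ng/ul with 50 μM RHKK(Ac)AMC substrate in Tris-HCl pH8.0 buffer with BSA, 1% DMSO final. Incubated 1 hour at 30° C with compounds, then developer added; fluorescence read at 360/460 Ex/Em.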

Human HDAC4 = biological target: T2, Human HDAC4 (Homo sapiens, UniProt P56524); experiment: HDAC4 biochemical assay, class IIa-specific substrate; conditions: read-out: HDAC Isoform IC50 (nM) 4
T2 construct: amino acids 627-1085 with N-terminal GST tag; GST (N); host or cells: baculovirus expression system
T2 sequence (P56524 627-1084 limits assumed): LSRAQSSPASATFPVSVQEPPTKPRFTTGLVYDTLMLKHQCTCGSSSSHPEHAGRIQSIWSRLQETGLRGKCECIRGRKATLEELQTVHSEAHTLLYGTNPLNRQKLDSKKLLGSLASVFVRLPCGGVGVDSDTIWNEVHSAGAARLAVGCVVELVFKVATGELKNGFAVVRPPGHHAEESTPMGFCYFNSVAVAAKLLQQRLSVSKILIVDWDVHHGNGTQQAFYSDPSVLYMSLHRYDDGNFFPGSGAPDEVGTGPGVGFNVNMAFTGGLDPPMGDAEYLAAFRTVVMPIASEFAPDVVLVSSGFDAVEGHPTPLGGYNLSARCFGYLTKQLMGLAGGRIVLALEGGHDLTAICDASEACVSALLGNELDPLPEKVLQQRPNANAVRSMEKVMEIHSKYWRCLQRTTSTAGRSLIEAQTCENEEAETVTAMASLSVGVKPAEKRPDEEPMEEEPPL
Outline: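 Two-step fluorogenic read-out: deacetylated BOC-Lys(trifluoroacetyl)-AMC (50 μM) was digested by developer and measured at Ex/Em 360/460. Deacetylation by 0.004 ng/ul HDAC4 (aa 627-1085, N-terminal GST) ran 30 min at room temperature, pH 8.0 Tris buffer, 1 mg/mL BSA, 1% DMSO.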

Human HDAC5 = biological target: T3, Human HDAC5 (Homo sapiens, UniProt Q9UQL6); experiment: HDAC5 biochemical assay, class IIa-specific substrate; conditions: read-out: HDAC Isoform IC50 (nM) 5
T3 construct: full length with C-terminal His tag, MW=51.1 kDa; His (C); host or cells: baculovirus expression system
T3 sequence (Q9UQL6 656-1122 limits assumed): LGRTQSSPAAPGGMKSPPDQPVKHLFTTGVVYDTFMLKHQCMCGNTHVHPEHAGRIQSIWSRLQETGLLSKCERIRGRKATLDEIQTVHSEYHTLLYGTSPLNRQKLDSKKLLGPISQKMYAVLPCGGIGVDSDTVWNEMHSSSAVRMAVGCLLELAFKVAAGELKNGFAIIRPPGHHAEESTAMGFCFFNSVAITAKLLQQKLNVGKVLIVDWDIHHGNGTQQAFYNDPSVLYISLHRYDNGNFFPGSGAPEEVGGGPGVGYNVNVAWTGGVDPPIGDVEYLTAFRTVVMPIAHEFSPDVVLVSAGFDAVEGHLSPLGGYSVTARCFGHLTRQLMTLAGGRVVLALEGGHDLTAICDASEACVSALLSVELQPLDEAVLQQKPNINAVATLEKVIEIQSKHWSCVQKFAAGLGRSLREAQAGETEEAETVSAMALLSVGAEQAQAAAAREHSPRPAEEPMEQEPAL
Outline: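 Two-step fluorogenic read-out: deacetylated trifluoroacetyl-lysine AMC substrate (50 μM) digested by developer, measured at Ex/Em 360/460. Deacetylation step: 0.05 ng/ul His-tagged full-length baculoviral enzyme with compound, 30 min, room temperature, pH 8.0 Tris with 1 mg/mL BSA and 1% DMSO.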

Human HDAC8 = biological target: T4, Human HDAC8 (Homo sapiens, UniProt Q9BY41); experiment: HDAC8 biochemical assay, AMC-labeled peptide substrate; conditions: read-out: HDAC Isoform IC50 (nM) 8
T4 construct: full length with C-terminal His tag, MW=42.6 kDa; His (C); host or cells: baculovirus expression system
T4 sequence (Q9BY41 1-377): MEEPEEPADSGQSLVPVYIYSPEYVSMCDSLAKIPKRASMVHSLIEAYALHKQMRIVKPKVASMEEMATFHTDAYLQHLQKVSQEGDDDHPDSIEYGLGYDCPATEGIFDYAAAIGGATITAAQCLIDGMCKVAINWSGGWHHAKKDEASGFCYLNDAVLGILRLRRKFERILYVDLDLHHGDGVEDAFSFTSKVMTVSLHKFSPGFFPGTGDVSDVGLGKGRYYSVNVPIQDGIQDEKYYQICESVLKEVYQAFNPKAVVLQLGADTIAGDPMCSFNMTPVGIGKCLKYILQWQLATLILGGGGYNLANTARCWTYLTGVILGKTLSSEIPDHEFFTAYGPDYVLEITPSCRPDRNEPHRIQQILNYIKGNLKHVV
Outline: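 Two-step fluorogenic readout: compounds and enzyme deacetylate 100 µM RHK(Ac)K(Ac)AMC for 2 h at 30° C (pH8.0 Tris buffer, BSA, 1% DMSO final), then developer releases AMC, read at 360/460 Ex/Em. Enzyme: 1 ng/ul full-length His-tagged human HDAC8 from baculovirus.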

Human HDAC9 = biological target: T5, Human HDAC9 (Homo sapiens, UniProt Q9UKV0); experiment: HDAC9 biochemical assay, class IIa-specific substrate; conditions: read-out: HDAC Isoform IC50 (nM) 9
T5 construct: amino acids 604-1066 with C-terminal His tag; His (C); host or cells: baculovirus expression system
T5 sequence (Q9UKV0 604-1066 isoform Q9UKV0-5): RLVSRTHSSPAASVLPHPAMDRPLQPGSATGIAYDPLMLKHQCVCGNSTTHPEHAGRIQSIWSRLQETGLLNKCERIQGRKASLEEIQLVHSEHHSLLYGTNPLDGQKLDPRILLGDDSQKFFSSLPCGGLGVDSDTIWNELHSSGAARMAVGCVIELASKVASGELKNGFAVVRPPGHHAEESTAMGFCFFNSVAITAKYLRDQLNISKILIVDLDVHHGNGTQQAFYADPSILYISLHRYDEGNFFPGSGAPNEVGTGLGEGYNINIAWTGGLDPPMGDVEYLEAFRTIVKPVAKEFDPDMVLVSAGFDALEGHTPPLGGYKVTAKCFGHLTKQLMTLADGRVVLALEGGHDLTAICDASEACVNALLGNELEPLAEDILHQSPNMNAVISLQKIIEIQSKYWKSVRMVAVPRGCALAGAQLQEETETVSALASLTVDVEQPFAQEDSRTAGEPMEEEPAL
Outline: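 HDAC9 residues 604-1066 (C-terminal His tag, baculovirus-expressed) at 0.06 ng/ul with 50 μM class IIa substrate Boc-Lys(trifluoroacetyl)-AMC in Tris-HCl pH 8.0 buffer with BSA and 1% DMSO. 30 min at room temperature, then developer added; fluorescence read at 360/460 nm Ex/Em.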

Human HDAC10 = biological target: T6, Human HDAC10 (Homo sapiens, UniProt Q969S8); experiment: HDAC10 biochemical assay, AMC-labeled peptide substrate; conditions: read-out: HDAC Isoform IC50 (nM) 10
T6 construct: Human HDAC10 (a.a. 1-481); GST (N); His (C); host or cells: baculovirus expression system
T6 sequence (Q969S8 1-481): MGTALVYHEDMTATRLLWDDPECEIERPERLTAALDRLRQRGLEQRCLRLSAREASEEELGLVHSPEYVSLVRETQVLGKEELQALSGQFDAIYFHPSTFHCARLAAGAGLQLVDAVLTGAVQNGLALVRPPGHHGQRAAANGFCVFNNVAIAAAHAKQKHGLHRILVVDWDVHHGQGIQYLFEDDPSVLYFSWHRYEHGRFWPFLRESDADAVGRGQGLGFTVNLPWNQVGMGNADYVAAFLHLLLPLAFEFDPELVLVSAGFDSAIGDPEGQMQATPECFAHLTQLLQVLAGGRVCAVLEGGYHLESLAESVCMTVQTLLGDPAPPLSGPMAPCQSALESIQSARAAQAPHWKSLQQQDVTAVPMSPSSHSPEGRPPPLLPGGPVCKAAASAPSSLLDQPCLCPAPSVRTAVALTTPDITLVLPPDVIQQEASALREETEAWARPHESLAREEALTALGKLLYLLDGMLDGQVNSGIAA
Outline: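 Two-step fluorogenic read-out (Ex/Em 360/460) after developer digestion of deacetylated RHKK(Ac)AMC (50 μM). Deacetylation ran 2 h at 30 °C with 12 ng/ul HDAC10 (aa 1-481, GST/His tags, baculovirus) in Tris-HCl pH 8.0, BSA, 1% DMSO.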

T1 sequence (Q92769 whole entry, canonical isoform): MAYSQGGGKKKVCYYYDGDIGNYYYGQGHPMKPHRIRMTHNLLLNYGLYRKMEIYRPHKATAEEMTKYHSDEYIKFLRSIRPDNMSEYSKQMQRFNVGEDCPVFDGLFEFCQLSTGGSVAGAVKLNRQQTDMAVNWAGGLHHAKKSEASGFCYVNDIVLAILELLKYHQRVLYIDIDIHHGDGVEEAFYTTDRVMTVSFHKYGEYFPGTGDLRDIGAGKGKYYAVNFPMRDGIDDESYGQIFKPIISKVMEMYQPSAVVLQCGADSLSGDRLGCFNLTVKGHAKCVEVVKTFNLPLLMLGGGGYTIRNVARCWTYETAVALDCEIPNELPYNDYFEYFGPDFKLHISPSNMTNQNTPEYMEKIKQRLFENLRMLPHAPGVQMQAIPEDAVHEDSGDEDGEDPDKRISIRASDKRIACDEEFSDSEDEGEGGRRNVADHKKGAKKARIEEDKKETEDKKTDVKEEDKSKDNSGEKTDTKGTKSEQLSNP

IC50 (Human HDAC2) [nM] | IC50 (Human HDAC4) [nM] | IC50 (Human HDAC5) [nM] | IC50 (Human HDAC8) [nM] | IC50 (Human HDAC9) [nM] | IC50 (Human HDAC10) [nM] | Structure (SMILES)
> 10000 | ≤ 500 | ≤ 500 | ≤ 10000 | ≤ 500 | > 10000 | COC1CN(C(=O)c2ccc(N(Cc3ccc(-c4noc(C(F)(F)F)n4)s3)c3cnccn3)nn2)C1 [Example DR, 6-(3-Methoxyazetidine-1-carbonyl)-N-(pyrazin-2-yl)-N-({5-[5-(trifluoromethyl)-1,2,4-oxadiazol-3-yl]thiophen-2-yl}methyl)pyridazin-3-amine]
> 10000 | ≤ 1000 | ≤ 10000 | ≤ 10000 | ≤ 10000 | > 10000 | O=C(c1cnnc(N(Cc2ccc(-c3noc(C(F)(F)F)n3)s2)c2cnccn2)c1)N1CC(C(F)(F)F)C1 [Example GJ, N-(Pyrazin-2-yl)-N-({5-[5-(trifluoromethyl)-1,2,4-oxadiazol-3-yl]thiophen-2-yl}methyl)-5-[3-(trifluoromethyl)azetidine-1-carbonyl]pyridazin-3-amine]
